Drawing on ChEMBL document CHEMBL5446079, “Affinity Biochemical Literature for EUbOPEN Chemogenomic Library” (2024), this text covers IC50 for four molecules.

The target in assay [1] is T1, Casein kinase I isoform epsilon (Homo sapiens, UniProt P49674).
The target of assay [2] is T2, Casein kinase I isoform delta (Homo sapiens, UniProt P48730).
Assay [3] deals with T3, Casein kinase I isoform alpha (Homo sapiens, UniProt P48729).
Assay [4] has as its target T2, Casein kinase I isoform delta. This is another data set of the same source.
Assay [5] deals with T3, Casein kinase I isoform alpha. The source holds these as a separate data set.
For assay [6], the target named is T1, Casein kinase I isoform epsilon. This is another data set of the same source.
The target of assay [7] is T4, Bromodomain-containing protein 1 (Homo sapiens, UniProt O95696).
T4 sequence (O95696 whole entry): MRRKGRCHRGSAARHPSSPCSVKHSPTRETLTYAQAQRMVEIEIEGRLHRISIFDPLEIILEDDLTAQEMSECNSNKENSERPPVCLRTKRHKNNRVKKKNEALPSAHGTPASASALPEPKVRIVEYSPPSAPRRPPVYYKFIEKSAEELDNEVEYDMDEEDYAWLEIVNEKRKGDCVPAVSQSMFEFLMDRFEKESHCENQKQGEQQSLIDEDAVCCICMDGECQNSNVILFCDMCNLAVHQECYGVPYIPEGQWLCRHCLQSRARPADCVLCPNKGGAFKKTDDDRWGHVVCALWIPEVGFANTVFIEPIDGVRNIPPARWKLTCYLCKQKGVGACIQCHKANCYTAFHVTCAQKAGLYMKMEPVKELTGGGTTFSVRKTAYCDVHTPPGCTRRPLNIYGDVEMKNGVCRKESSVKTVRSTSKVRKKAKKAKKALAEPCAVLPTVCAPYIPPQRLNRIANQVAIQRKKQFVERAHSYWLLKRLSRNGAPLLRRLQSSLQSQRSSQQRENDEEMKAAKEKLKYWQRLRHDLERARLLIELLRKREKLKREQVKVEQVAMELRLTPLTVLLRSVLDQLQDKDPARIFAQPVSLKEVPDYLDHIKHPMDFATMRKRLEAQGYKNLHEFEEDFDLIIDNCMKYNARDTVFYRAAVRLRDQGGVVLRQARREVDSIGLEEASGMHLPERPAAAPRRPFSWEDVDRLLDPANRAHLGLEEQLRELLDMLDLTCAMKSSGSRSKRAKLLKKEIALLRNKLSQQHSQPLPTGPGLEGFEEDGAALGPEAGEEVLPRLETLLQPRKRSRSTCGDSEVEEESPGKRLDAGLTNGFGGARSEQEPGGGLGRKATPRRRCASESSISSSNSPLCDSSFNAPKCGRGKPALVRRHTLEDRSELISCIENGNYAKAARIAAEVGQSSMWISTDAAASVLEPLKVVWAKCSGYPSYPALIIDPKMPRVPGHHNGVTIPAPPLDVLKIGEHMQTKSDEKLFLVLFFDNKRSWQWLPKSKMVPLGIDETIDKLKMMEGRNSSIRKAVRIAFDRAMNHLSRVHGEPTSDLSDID

In assay [8] the target is T5, Bromodomain and PHD finger-containing protein 3 (Homo sapiens, UniProt Q9ULD4).
T5 sequence (Q9ULD4 whole entry): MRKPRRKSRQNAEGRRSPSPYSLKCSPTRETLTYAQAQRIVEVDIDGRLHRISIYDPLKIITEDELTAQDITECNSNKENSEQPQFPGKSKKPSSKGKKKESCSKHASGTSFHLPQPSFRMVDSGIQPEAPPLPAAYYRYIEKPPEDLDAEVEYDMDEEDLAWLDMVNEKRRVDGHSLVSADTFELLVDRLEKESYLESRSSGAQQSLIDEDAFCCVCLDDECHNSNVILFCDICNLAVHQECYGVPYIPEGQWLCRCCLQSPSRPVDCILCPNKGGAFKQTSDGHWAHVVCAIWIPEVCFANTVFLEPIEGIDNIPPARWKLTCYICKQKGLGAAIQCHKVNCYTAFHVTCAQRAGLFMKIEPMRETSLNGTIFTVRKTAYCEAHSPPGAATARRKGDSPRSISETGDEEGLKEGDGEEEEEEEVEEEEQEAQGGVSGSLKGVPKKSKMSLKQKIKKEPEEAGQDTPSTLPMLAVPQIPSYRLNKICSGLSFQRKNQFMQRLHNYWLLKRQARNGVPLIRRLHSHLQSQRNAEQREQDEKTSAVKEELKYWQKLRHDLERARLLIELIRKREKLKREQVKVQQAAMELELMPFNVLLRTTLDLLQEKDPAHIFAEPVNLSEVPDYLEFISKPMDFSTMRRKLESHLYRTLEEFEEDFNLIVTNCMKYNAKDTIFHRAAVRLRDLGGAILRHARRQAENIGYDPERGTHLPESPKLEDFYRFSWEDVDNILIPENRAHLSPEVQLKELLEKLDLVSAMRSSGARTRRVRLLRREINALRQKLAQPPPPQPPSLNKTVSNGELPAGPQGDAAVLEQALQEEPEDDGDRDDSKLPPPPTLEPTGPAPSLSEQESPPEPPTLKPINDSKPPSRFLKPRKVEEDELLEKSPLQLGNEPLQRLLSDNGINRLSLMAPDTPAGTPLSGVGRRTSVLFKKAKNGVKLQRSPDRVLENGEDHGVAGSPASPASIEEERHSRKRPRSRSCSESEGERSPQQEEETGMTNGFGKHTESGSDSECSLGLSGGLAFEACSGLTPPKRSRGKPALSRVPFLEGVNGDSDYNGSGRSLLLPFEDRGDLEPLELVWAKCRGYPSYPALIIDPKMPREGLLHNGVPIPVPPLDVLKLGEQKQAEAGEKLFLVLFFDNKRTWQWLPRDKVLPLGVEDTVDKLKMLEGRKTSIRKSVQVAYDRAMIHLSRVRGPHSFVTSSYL

For the next assay, the target named is T6, Peregrin (Homo sapiens, UniProt P55201).
T6 sequence (P55201 whole entry): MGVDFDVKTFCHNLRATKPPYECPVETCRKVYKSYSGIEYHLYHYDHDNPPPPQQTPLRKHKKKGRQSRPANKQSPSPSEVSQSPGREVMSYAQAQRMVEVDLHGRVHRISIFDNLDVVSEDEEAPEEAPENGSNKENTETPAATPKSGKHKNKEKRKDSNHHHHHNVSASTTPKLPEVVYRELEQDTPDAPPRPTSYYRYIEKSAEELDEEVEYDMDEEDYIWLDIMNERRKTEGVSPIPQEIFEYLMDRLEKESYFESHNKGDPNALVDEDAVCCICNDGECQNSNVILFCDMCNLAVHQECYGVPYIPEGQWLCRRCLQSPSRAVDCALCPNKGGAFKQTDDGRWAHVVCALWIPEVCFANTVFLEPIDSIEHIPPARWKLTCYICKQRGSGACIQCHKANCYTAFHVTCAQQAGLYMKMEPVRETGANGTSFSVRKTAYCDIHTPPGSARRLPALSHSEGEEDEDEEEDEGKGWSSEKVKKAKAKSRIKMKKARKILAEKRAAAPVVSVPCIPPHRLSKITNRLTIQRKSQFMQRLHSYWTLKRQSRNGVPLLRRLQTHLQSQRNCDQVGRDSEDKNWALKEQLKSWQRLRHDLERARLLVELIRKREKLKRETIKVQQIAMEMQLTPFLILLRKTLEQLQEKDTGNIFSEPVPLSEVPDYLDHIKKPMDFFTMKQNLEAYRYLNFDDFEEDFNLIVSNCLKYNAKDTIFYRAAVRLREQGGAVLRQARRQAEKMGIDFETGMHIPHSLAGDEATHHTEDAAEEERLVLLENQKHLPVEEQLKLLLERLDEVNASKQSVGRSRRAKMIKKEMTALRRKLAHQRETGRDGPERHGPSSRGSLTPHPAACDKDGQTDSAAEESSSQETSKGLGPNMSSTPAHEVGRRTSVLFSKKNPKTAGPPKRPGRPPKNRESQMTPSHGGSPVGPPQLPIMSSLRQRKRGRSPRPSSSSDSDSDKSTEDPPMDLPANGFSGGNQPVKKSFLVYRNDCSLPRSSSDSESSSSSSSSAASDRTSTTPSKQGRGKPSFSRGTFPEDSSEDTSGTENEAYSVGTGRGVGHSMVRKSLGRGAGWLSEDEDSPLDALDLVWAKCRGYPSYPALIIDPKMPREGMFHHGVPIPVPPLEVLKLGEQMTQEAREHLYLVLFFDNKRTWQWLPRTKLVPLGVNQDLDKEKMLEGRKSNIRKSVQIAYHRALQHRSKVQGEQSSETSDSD

In assay [9] the target is T7, Inhibitor of nuclear factor kappa-B kinase subunit beta (Homo sapiens, UniProt O14920).
T7 sequence (O14920 whole entry): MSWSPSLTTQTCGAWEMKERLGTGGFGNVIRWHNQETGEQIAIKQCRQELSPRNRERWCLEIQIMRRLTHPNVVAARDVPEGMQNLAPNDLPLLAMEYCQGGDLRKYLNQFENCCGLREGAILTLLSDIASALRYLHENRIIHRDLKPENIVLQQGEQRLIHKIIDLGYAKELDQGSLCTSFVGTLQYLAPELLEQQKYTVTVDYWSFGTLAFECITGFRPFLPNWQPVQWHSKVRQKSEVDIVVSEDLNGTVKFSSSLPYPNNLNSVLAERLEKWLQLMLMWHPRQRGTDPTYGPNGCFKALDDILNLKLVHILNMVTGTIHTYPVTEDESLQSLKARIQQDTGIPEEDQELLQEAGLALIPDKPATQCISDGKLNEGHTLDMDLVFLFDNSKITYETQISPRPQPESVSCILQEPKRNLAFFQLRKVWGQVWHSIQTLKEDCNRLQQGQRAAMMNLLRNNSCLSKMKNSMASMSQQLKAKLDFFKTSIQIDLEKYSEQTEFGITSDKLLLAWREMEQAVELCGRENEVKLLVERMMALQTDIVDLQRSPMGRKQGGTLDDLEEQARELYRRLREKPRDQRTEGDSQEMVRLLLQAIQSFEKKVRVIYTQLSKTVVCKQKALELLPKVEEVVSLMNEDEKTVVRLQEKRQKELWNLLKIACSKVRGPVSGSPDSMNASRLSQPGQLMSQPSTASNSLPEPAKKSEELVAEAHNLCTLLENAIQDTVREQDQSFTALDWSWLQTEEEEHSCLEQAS

T3 sequence (P48729 whole entry, canonical isoform): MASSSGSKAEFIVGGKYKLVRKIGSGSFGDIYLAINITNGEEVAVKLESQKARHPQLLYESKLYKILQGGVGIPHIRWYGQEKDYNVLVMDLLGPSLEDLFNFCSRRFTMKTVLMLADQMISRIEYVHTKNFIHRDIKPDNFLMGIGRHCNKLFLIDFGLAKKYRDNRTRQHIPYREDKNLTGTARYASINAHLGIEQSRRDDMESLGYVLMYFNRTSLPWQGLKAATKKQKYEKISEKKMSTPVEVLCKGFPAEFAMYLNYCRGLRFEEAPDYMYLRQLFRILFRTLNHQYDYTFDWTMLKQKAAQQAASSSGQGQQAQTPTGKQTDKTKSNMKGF
T2 sequence (P48730 whole entry, canonical isoform): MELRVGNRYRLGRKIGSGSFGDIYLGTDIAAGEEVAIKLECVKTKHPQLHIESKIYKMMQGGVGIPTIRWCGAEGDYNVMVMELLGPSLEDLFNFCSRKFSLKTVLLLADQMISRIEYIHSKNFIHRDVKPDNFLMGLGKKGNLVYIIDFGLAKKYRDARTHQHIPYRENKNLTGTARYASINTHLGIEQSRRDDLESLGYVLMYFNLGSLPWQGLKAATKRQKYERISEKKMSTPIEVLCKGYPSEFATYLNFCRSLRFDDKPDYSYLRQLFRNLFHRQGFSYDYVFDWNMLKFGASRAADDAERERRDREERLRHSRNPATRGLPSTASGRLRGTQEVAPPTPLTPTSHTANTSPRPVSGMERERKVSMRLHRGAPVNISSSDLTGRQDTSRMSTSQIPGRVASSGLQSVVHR
T1 sequence (P49674 whole entry, canonical isoform): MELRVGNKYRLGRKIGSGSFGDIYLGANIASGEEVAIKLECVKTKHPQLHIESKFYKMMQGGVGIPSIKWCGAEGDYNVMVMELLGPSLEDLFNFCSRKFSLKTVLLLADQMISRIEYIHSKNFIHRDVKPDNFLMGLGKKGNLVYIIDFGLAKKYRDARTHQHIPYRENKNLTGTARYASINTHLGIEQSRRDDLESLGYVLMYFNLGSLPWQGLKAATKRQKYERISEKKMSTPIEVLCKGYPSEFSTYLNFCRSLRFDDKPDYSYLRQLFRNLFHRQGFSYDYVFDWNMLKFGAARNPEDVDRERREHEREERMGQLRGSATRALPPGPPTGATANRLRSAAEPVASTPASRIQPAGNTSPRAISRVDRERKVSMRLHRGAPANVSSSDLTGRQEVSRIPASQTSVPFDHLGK

One may read the IC50 as the concentration that inhibits the measured activity by half. Low readings indicate higher potency, high ones lower potency. Regarding `CCc1ccc(-c2ncn(CC3(F)CCN(C)CC3)c2-c2ccnc3[nH]ccc23)nc1`, the IC50 in assay [1], in [2] and in assay [3] was above 3 µM throughout.
As to `CN1CCC(F)(Cn2cnc(-c3ccc(F)cn3)c2-c2ccnc3[nH]ccc23)CC1`, the results for the IC50 in assay [4], in assay [5] and in assay [6] were 0.0061 µM, 0.0072 µM and 0.0273 µM, respectively.
`CCc1cc2cc(NS(=O)(=O)c3ccc(C#N)cc3)ccc2n(CC)c1=O`: the IC50 (in [7]; in assay [8]; at Peregrin) was above 100 µM in each case.
In turn, `CN(C)C(=O)c1sc2nc(N3CCC(S(C)(=O)=O)CC3)cc(C(F)(F)F)c2c1N` [BI-5026] displayed an IC50 in assay [9] above 10 µM.
